These results are taken from ChEMBL document CHEMBL1201862, “PubChem BioAssay data set” (2004).

In test [1] the target is Cytochrome P450 2D6 (Homo sapiens, UniProt P10635).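 Further: CYP2D6 member of a cytochrome P450 panel assay.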
Test [2] has as its target T1, Polyadenylate-binding protein 1 (Homo sapiens, UniProt P11940). Kind of test: PABP1 MLLE–PAM2 interaction inhibitors, dose response, miRNA deadenylation inhibitor project, biochemical, fluorescence polarization, Cy5-PAM2 peptide, secondary (AID 602260). Format: functional. The conditions noted are these: read-out: IC50_Mean. In general terms: Fluorescence polarisation rises when a labelled molecule tumbles more slowly, as on binding a larger partner.

Test [3] has as its target T1, Polyadenylate-binding protein 1. The test can be described thus: PABP1 MLLE–PAM2 binding inhibitor potency, dose response, biochemical, fluorescence polarization, FITC-PAM2 peptide (AID 602259). Format: functional. Particulars: read-out: IC50_Mean.
Test [4] has as its target Cytochrome P450 2C9 (Homo sapiens, UniProt P11712).
The target in test [5] is T2, RNA-binding protein pos-1 (Caenorhabditis elegans, UniProt G5EF15).
T2 sequence (G5EF15 whole entry): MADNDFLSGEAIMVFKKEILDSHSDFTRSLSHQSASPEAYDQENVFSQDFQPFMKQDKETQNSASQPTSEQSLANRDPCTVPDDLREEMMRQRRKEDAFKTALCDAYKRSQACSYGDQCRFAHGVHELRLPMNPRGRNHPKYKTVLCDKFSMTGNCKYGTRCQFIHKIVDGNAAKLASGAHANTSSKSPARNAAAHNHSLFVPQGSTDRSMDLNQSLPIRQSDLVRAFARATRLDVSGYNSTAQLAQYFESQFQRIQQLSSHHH
The test can be described thus: inhibitors of POS-1/mex-3 RNA binding, dose response, biochemical, fluorescence polarization (AID 1964).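 Further: purified POS-1 fused to maltose binding protein made in E. coli; potency of compounds blocking POS-1 binding to fluorescent RNA.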

The target of test [6] is T3, Zinc finger protein mex-5 (Caenorhabditis elegans, UniProt Q9XUB2).
T3 sequence (Q9XUB2 whole entry): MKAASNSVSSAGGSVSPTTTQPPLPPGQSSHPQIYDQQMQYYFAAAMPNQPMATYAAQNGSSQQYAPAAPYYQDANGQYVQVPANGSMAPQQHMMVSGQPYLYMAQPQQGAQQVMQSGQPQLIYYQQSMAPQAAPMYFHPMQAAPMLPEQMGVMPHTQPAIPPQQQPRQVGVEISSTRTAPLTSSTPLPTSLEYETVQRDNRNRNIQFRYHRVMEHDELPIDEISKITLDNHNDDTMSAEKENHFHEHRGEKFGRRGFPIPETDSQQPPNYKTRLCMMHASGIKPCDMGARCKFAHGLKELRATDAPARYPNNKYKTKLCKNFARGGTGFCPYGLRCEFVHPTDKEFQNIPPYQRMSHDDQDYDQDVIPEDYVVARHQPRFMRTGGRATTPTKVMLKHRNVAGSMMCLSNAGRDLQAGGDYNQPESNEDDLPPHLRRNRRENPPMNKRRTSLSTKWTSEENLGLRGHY
The test can be described thus: MEX-5/TCR-2 RNA interaction inhibitors, dose response, biochemical, C. elegans, fluorescence polarization (AID 1960).

The target of test [7] is T4, Heat shock factor protein 1 (Mus musculus, UniProt P38532).
T4 sequence (P38532 whole entry): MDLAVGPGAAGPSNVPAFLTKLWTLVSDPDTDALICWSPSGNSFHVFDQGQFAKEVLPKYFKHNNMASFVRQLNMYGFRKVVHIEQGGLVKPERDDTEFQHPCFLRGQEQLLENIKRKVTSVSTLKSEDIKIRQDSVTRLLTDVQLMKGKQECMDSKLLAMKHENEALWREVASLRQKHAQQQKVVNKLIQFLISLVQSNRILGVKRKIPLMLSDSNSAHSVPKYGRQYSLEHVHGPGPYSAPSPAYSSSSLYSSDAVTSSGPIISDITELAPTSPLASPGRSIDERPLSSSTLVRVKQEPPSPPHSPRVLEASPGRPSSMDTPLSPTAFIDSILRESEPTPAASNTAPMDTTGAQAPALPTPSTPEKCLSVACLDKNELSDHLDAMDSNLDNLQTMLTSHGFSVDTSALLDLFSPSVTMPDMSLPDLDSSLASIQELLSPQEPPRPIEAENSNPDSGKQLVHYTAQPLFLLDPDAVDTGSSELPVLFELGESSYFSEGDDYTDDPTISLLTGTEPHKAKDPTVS
Kind of test: HSF1 potentiators in luciferase reporter cells, confirmation, cell-based, NIH3T3, luminescence, dose retest (AID 435004).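 Further: stress induced by proteasome inhibitor MG132 added 30 min after compound; luciferase reporter driven by HSF1 response element in NIH3T3 cells; actives raise luminescence as potentiators of the MG132 stress response.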 Format: functional. (Reporter assays use an easily measured gene product as a stand-in for the process of interest.)

Test [8] deals with Cytochrome P450 2C19 (Homo sapiens, UniProt P33261). The test can be described thus: Cytochrome panel assay with activity outcomes. Panel member name: p450-cyp2c19 Compounds with AC50 equal or less than 10 uM are considered active. Format: functional. Particulars: read-out: AC50.
Chain of Cytochrome P450 2C19 (P33261 whole entry): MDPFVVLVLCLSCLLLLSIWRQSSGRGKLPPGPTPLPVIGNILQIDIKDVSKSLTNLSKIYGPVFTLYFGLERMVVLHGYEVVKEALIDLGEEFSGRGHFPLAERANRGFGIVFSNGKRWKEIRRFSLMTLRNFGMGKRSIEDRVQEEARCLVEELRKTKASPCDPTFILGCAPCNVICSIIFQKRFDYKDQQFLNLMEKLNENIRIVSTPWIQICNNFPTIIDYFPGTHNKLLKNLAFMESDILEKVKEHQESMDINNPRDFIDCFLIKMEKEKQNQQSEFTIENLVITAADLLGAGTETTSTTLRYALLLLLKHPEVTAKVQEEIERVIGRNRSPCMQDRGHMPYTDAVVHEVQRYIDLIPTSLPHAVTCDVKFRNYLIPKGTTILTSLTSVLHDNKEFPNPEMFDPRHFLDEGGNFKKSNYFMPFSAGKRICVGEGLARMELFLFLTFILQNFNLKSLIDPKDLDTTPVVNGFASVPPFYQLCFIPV
Test [9] has as its target T5, Cytochrome P450 1A2 (Homo sapiens, UniProt P05177).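 Further: PubChem cytochrome P450 panel assay, CYP1A2 panel member.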
T5 sequence (P05177 whole entry): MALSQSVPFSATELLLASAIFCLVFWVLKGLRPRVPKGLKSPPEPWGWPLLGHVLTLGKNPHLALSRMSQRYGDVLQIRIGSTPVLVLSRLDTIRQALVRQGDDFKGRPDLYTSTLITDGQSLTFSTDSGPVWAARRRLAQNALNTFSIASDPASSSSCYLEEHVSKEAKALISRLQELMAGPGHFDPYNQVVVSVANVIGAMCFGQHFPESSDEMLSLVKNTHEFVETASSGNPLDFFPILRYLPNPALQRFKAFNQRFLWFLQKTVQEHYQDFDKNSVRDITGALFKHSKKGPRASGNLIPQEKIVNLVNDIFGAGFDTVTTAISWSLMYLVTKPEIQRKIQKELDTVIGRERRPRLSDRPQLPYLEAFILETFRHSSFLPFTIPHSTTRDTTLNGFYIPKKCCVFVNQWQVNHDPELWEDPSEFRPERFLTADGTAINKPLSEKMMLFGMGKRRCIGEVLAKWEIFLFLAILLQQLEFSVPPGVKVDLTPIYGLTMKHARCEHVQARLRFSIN

The target of test [10] is Cytochrome P450 3A4 (Homo sapiens, UniProt P08684).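 Further: CYP3A4 tested as one member of a cytochrome P450 panel screen.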
Chain of Cytochrome P450 3A4 (P08684 whole entry): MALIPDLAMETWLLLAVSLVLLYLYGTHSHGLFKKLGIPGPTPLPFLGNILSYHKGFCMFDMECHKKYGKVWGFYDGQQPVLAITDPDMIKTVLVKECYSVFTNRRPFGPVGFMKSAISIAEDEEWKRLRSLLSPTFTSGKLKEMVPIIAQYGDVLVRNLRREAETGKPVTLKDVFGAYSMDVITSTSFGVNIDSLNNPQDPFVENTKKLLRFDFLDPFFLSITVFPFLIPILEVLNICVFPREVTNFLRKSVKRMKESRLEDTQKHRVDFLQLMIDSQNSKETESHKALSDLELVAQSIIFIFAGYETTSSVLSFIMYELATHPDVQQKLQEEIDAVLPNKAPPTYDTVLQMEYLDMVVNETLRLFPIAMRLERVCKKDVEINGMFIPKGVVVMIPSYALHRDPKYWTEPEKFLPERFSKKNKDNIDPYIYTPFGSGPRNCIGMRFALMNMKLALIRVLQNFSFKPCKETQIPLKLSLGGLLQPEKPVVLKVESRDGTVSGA

Activity calls are given as the source filed them.

As usually defined, the AC50 is the midpoint of the concentration-response curve, whichever way the signal moves. As a reminder, the EC50 is the concentration at which the effect is half-maximal.

Chain of Cytochrome P450 2C9 (P11712 whole entry): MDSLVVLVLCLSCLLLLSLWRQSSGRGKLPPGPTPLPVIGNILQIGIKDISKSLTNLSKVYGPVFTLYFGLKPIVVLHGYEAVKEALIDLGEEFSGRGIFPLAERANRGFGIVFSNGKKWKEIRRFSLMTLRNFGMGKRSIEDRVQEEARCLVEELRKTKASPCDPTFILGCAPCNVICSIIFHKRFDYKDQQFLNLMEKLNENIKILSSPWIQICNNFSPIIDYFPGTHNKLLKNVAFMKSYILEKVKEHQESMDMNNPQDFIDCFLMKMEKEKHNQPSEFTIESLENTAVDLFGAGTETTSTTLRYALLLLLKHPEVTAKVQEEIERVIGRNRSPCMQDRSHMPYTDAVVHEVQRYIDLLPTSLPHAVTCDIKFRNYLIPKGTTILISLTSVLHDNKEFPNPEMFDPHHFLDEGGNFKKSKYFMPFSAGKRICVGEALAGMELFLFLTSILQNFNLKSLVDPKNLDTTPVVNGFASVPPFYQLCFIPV
T1 sequence (P11940 whole entry): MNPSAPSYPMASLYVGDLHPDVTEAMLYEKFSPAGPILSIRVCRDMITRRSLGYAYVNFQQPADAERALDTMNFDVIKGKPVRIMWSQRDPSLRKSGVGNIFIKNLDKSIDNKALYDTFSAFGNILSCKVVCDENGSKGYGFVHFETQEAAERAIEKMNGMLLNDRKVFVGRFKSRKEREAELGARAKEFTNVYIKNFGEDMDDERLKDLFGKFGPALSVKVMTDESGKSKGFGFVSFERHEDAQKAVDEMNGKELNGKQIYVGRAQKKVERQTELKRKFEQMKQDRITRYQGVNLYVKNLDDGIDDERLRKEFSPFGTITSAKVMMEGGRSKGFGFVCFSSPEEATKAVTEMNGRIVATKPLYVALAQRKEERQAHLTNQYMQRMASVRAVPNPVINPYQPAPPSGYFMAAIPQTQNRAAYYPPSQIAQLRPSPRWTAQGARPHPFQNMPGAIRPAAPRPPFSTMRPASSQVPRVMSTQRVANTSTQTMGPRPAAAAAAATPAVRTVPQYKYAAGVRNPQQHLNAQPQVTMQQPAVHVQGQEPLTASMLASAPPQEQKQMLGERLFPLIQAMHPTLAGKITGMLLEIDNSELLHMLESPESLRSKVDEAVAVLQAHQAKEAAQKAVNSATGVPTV
Chain of Cytochrome P450 2D6 (P10635 whole entry): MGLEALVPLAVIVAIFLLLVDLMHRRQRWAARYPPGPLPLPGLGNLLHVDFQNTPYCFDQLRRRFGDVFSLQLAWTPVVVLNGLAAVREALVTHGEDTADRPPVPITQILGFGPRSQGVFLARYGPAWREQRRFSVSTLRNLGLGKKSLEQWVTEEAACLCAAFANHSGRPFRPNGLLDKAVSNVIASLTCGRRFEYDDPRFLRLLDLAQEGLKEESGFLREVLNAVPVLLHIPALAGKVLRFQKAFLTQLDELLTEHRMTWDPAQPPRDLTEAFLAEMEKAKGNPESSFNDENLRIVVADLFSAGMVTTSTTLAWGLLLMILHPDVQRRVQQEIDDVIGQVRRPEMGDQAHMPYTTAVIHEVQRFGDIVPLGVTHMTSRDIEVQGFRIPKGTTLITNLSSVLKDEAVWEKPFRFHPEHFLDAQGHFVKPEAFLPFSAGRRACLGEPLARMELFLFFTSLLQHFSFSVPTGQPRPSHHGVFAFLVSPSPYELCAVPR

As to `COCCn1c(=O)c(-c2ccc(Cl)cc2)nc2cnc(N(C)C)nc21`, in test [1], the AC50 is 0.0794 µM (inconclusive).
As to `CCC(=O)/C=C1/Sc2ccc(OC)cc2N1CCO`, the IC50 in [2] and in test [3] was > 66 µM (inactive) throughout.
For `COc1ccc2[nH]cc(CCNc3cc(-c4cccnc4)ncn3)c2c1`, the AC50 in [1] was 20 µM (inconclusive).
Same read-out and setting: to `CC(C)Cn1c(SCc2nc(O)c3ccccc3n2)nc2ccccc2c1=O` belongs 3.98 µM (inconclusive).
On to `COc1ccc(CNc2ccnc(-c3cccc(C#N)c3)n2)c(OC)c1`, for which the AC50 in [1] is 12.6 µM (inconclusive); in test [4] it was 0.501 µM (inconclusive).
For the compound `COC(=O)CNC(=O)C1Nc2ccc(OC(F)(F)F)cc2C2C=CCC12` (centres undefined), the EC50 in [5] and in test [6] was > 300 µM (not active) each time.
`COCCNC(=O)C1Nc2ccc(C(F)(F)F)cc2C2C=CCC12` (centres undefined): the EC50 in test [5] and in test [6] was > 300 µM (not active) throughout.
With `COc1ncnc2c1N=C1CC(C)(C)CC(NCCC(=O)O)=C1S2`, the EC50 is > 300 µM (not active) in test [5] and 13.8 µM (active) in test [6].
As for `COc1ccccc1N1CCN(Cc2cccc(OC)c2O)CC1`, in test [7], the EC50 is > 260 µM (inactive).
For `CC(=O)c1cccc(NC(=S)NC(=O)c2ccccc2Br)c1`, the IC50 in test [2] and in [3] was > 66 µM (inactive) each time.
On to `Cc1[nH]c2ccccc2c1/C=C(\C#N)C(=O)NCC1CCCO1` (centres undefined), for which, in [7], the EC50 was 53.1 µM (active).
Take `S=C(Nc1ccc2nc(-c3ccccn3)c(-c3ccccn3)nc2c1)N1CCOCC1`: the IC50 in [2] is > 66 µM (inactive); in test [3] it was 40.3 µM (inactive).
On to `COc1ccc(NC(=O)Nc2sc(NS(=O)(=O)c3ccccc3)nc2C)cc1`, for which the IC50 in test [2] and in [3] was > 66 µM (inactive) in each case.
Regarding `COC(=O)[C@@]1(Cc2ccc(OC)cc2)[C@H]2c3cc(C(=O)N(C)C)n(CCc4c[nH]c5ccc(O)cc45)c3C[C@H]2CN1C(=O)c1ccccc1`, the results for the AC50 in [8] and in [1] were 25.1 µM (inconclusive) and 15.8 µM (inconclusive), respectively.
Consider `FC(F)(F)C(F)(F)C(F)(F)c1nc2nc(Cl)c(Cl)[nH]c-2n1`, for which the IC50 in test [2] and in [3] was > 66 µM (inactive) in each case.
Take `CCc1c(O)nc(SCc2nc(O)c3ccccc3n2)nc1O`: the IC50 in test [2] and in test [3] was > 66 µM (inactive) each time.
On to `O=C(c1csnn1)N1CCC2(CC1)CCN(c1ccccc1)CC2`, for which the concentration at half-maximal activity (AC50) in [1] is 7.94 µM (inconclusive); in test [9], 15.8 µM (inconclusive).
Consider `CC(=O)c1cccc(/N=C/c2c(O)oc3ccccc3c2=O)c1`, for which the EC50 in test [7] was 2.8 µM (active).
On to `COC1=C(OC)C(=O)c2ccccc2C1=O`, for which the figures for the AC50 in test [8], in test [1] and in [4] were 31.6 µM (inconclusive), 39.8 µM (inconclusive) and 39.8 µM (inconclusive), respectively.
On to `FC(F)(F)c1cc(CN2CCC3(CCNCC3)CC2)cc(C(F)(F)F)c1`, for which the figures for the AC50 in test [1] and in test [10] were 25.1 µM (inconclusive) and 31.6 µM (inconclusive), respectively.
As to `Cc1n[nH]c(O)c1N=Nc1ccc(S(N)(=O)=O)cc1`, the EC50 in test [5] is 78.9 µM (active); in test [6], 9.43 µM (inconclusive).
As for `Cc1ccc2nc(-c3cccnc3)c(NC3CCCCC3)n2c1`, the IC50 in test [2] is 41.4 µM (inactive); in [3] it was 34.7 µM (inactive).
With `Cc1cccc(N=Nc2c(O)[nH]c3ccc(Br)cc23)c1`, the EC50 in test [5] is 68.3 µM (active); in [6], 26.9 µM (inconclusive).
`CN(Cc1nnc(-c2ccc(F)cc2)o1)c1ccccc1`: in test [7], the EC50 was > 260 µM (inactive).
As for `Cc1nnc(O)nc1N/N=C/c1ccc(O)c([N+](=O)[O-])c1`, the EC50 was 169 µM (active) in [5] and 65.5 µM (active) in test [6].
As to `CC(=O)Nc1ccc(S(=O)(=O)Nc2nnc(CC(C)(C)C)s2)cc1`, the IC50 in [2] and in test [3] was > 66 µM (inactive) each time.
In the case of `C/C(=N/OC(=O)c1cccc(Cl)c1)c1nccs1`, the AC50 was 20 µM (inconclusive) in test [8], 35.5 µM (inconclusive) in test [1] and 31.6 µM (inconclusive) in test [9].
As for `Cc1onc(-c2ccccc2)c1C(=O)N=C(N)c1ccc(C(F)(F)F)cc1`, in test [7], the EC50 was > 260 µM (inactive).
Turning to `O=C(NCCc1ccccc1)c1noc2c1CCc1ccccc1-2`, the figures for the AC50 in test [1] and in [4] were 2.51 µM (inconclusive) and 7.08 µM (inconclusive), respectively.
`CC(C)OC(=O)c1nn2c(C(F)(F)F)cc(-c3ccc(Br)o3)nc2c1Br`: the EC50 in test [5] and in test [6] was > 300 µM (not active) each time.
Regarding `CCOC(=O)c1c(S(=O)(=O)NCC2CCN(CCc3cccs3)CC2)c(C)n(C)c1C`, the EC50 in [7] is > 260 µM (inactive).
`Cc1ccc(Nc2ccc([N+](=O)[O-])ccc2=O)cc1`: the EC50 in test [5] and in test [6] was > 300 µM (not active) throughout.
As for `COC(=O)N1C(c2ccccc2)C1c1ccccc1` (centres undefined), in [7], the EC50 was > 260 µM (inactive).
In the case of `CCc1ccc(Nc2ncccc2C#N)cc1`, the AC50 in test [1] was 20 µM (inconclusive); in test [10], 28.2 µM (inconclusive).
In the case of `O=C(NCSc1ccccc1)c1ccccc1`, the IC50 in test [2] and in test [3] was > 66 µM (inactive) throughout.
Consider `CC1(C)Cc2c(cnn2-c2cccc(F)c2)C(NC(=O)CSc2ccccn2)C1` (centres undefined), for which the values for the EC50 in test [5] and in test [6] were > 300 µM (not active) and > 150 µM (not active), respectively.
